In ChEMBL document CHEMBL1149593, “Mechanism of the melanogenesis stimulation activity of (-)-cubebin in murine B16 melanoma cells” (2007):
The source made the active and inactive calls. The rule behind the calls is not given here.

Columns and labels:
B16 [1] = assay: Melanogenesis stimulation activity in mouse B16 cells at 2 to 10 uM; format: functional, cell-based
B16 [2] = assay: Increase in melanin level in mouse B16 cells at 10 uM after 48 to 96 hrs; format: functional, cell-based
B16 [3] = assay: Increase in tyrosinase activity in mouse B16 cells at 10 uM after 24 to 96 hrs; format: functional, cell-based
B16 [4] = assay: Increase in tyrosinase expression in mouse B16 cells at 10 uM after 48 hrs; format: functional
B16 [5] = assay: Increase in tyrosinase mRNA expression in mouse B16 cells at 10 uM after 12 hrs; format: functional
[6] = molecular target: MAP kinase p38 (Mus musculus) (UniProt P47811+O08911+Q9WUI1+Q9Z1B7); assay: Increase in p38 MAPK phosphorylation in mouse B16 cells at 4 to 8 hrs; format: cell-based
B16 [7] = assay: Induction of tyrosinase mRNA expression in mouse B16 cells in presence of SB-203580; format: functional, cell-based

**Q.** For `O[C@H]1OC[C@H](Cc2ccc3c(c2)OCO3)[C@H]1Cc1ccc2c(c1)OCO2`, which Activity (B16 [1]) is on record?
**A.** Active

**Q.** And the Activity (B16 [2])?
**A.** Active

**Q.** What about the Activity (B16 [3]) of the same compound?
**A.** Active

**Q.** And the Fold change (B16 [4])?
**A.** 6.2

**Q.** What about the Fold change (B16 [5]) of the same compound?
**A.** 1.8

**Q.** What about the Activity [6] of the same compound?
**A.** Active

**Q.** What about the Activity (B16 [7]) of the same compound?
**A.** inactive
